Consider four compounds from ChEMBL document CHEMBL1201862, “PubChem BioAssay data set” (2004).

Calls of active or inactive are those of the source. Cut-off read from the data, not from the text of the source, for most assays here: actives have a measured EC50 and inactives only a lower limit.

Assay [1] is described as follows: NIH-3T3 fibroblast cytotoxicity, dose response, cytotoxicity control, cell-based, fluorescence, Alamar Blue, secondary assay (AID 2327).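 Note: NIH-3T3 mouse fibroblasts cultured with fluconazole at 8 µg/mL.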 It is filed as functional. Background: Resazurin is reduced to fluorescent resorufin, in cell work by metabolically active cells.
Assay [2] can be described thus: C. albicans growth with fluconazole, confirmation, fluorescence, retest (AID 2467). It is filed as functional, cell-based.
Assay [3] concerns the target Heat shock protein HSP 90-alpha (Homo sapiens, UniProt P07900). The class given is functional, organism-based.
Assay [4] relates to INS1. Nature of the assay: beta cell apoptosis inhibitors, cytokine rescue, dose response, luminescence, retest (AID 449756).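 Note: cell death triggered by IL-1 beta plus TNF-alpha plus IFN-gamma mixture; protective hits raise ATP signal compared with cytokine alone wells.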 It is filed as functional, cell-based. Conditions: Rattus norvegicus.
Assay [5] concerns the target ATP-dependent molecular chaperone HSP82 (Candida albicans (strain WO-1) (Yeast), UniProt C4YTQ8). Nature of the assay: loss of DOC-induced GRE-beta-galactosidase reporter signal, dose response, Hsp90 inhibitor project, S. cerevisiae, luminescence (AID 2400).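 Note: beta-galactosidase luminescence from glucocorticoid response element reporter as proxy for Hsp90 function; inhibitor potency where signal loss means Hsp90 inhibition.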 It is filed as functional, cell-based.

ATP-dependent molecular chaperone HSP82, sequence (C4YTQ8 whole entry): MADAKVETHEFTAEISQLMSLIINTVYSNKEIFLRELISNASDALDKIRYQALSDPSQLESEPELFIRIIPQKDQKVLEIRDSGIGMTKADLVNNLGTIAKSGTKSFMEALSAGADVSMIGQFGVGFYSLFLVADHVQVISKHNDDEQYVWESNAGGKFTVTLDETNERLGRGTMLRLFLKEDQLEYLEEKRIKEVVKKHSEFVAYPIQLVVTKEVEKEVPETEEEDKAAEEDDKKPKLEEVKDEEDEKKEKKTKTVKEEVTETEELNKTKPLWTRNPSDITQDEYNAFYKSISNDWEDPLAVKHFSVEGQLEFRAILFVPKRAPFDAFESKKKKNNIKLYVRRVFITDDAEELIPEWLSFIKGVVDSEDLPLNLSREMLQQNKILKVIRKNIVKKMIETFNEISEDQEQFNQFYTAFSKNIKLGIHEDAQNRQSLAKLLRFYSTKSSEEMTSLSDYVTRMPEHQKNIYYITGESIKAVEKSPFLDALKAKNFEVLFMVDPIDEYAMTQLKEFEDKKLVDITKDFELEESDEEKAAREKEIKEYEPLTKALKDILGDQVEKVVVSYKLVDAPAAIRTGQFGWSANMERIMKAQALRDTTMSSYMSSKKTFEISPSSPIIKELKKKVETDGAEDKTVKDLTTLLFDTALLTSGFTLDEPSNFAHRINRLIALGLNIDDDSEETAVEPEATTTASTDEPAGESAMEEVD

The term EC50 denotes the midpoint of the concentration-response curve. In general, AC50 refers to the concentration at which the activity in the assay is half-maximal. Consider `Oc1c(C(c2ccccc2Cl)N2CCCC2)ccc2cccnc12` (centres undefined), for which the EC50 in assay [1] is > 160 µM (inactive); in assay [2] it was 1.08 µM (active); in assay [5], > 160 µM (inactive). Further, the AC50 in assay [3] was 3.34 µM (active); in assay [4], 3.41 µM (active).

In the case of `CCc1ccc(S(=O)(=O)/N=C2\C=C(Nc3ccc(C(=O)O)cc3)C(=O)c3ccccc32)cc1`, the AC50 in assay [4] is 11.3 µM (active).

As for `[O-][N+]1=c2ccc(Nc3ccccc3)cc2=NC12CCCCC2`, the EC50 is 146 µM (active) in assay [1], 1.46 µM (active) in assay [2] and > 150 µM (inactive) in assay [5]. The AC50 in assay [4] was 5.64 µM (active).

In the case of `COc1cccc(/C=N/Nc2ccc([N+](=O)[O-])cn2)c1O`, the EC50 was 1.61 µM (inconclusive) in assay [1] and 1.51 µM (active) in assay [2]. In addition, the AC50 in assay [3] is 3.85 µM (active); in assay [4], 2.14 µM (active).
